Here are results for 5 compounds from publication PMC10551045 (Journal of the American Chemical Society, 2023).

Read-outs that look alike come from different tables or passages of the source. Where only a bound is given, the exact number is not on record here.

One data set deals with GBM-A. Kind of data set: cell killing, GBM-A patient-derived GBM CSC line. Format: cell-based, human. Conditions: for IC50: read-out: GBM-A IC50.
A further data set concerns GBM-F. The data set can be described thus: cell killing, GBM-F patient-derived GBM CSC line. Format: cell-based, human. Conditions: for IC50: read-out: GBM-F IC50.
Data set [1] relates to primary human astrocytes (HA). The data set can be described thus: cytotoxicity in control primary human astrocytes. Particulars: for IC50: read-out: HA IC50. Format: cell-based.
Data set [2] relates to WA09 human ES cell-derived neural progenitor cells (NPC). The data set can be described thus: cytotoxicity in control neural progenitor cells. Particulars: for IC50: read-out: NPC IC50. Format: cell-based.
Data set [3] has as its system primary human lung fibroblasts (HLF). Kind of data set: cytotoxicity in control primary human lung fibroblasts. Format: cell-based. Particulars: read-out: HLF IC50.
Data set [4] relates to control neural cell types. Kind of data set: cytotoxicity in control neural cell types. Format: cell-based, human. Conditions: read-out: IC50 in control neural cell types.
The subject of the next data set is U118MG. The data set can be described thus: cytotoxicity in hypo-MGMT methylated cell line. It counts as cell-based. Particulars: read-out: U118MG IC50.
Another data set has as its system LN229. Kind of data set: cytotoxicity in hyper-MGMT methylated cell line. Format: cell-based.
Data set [5] concerns HT-1080 fibrosarcoma cells. Kind of data set: cytotoxicity in HT-1080 fibrosarcoma cells. It counts as cell-based. Conditions: Homo sapiens, HT-1080, read-out: HT-1080 IC50.
A further data set deals with U87-EGFRvIII cells. Kind of data set: Cell-titer glo cell viability in U87-EGFRvIII cells after shRNA knockdown. It counts as cell-based. Particulars: for IC50: read-out: 24-hour IC50 value; for cell viability on loss of RIPK2 / sensitivity following shRNA-mediated RIPK1 knockdown: U87-EGFRvIII; for cell viability on loss of RIPK2: RIPK2 shRNA vs control, YM155 20 nM, aYM155 160 nM; for sensitivity following shRNA-mediated RIPK1 knockdown: induced tumor cell death.

In data set [6] the test system is Survivin. Kind of data set: Western blot of survivin in U87-EGFRvIII cells after shRNA RIPK2 knockdown. It counts as cell-based. Conditions: U87MG stably expressing EGFRvIII, 100 nM, 24 hours.
The subject of the next data set is HT-1080 cells. The data set can be described thus: Cell-titer glo cell viability in HT-1080 cells after shRNA RIPK2 knockdown. Format: cell-based. Conditions: HT-1080, RIPK2 shRNA vs control, 24 hours; YM155 4 nM, aYM155 40 nM.
Data set [7] relates to Survivin. Kind of data set: Western blot of survivin in HT-1080 cells after shRNA RIPK2 knockdown. Particulars: 24 hours. Format: cell-based.
In a further data set the test system is Casp-3/7. The data set can be described thus: Caspase-Glo 3/7 assay in HT-1080 cells. Format: cell-based. Conditions: for Casp3/7 activation on SLC35F2 shRNA knockdown: HT-1080; for Casp-3/7 activation in RIPK2 shRNA knockdown cells vs non-targeting control: HT-1080, 8 hours; for Casp-3/7 activation: HT-1080, 8 hours of treatment.
Another data set relates to Casp-1. Kind of data set: Casp-1 activation in cells. Format: cell-based. Particulars: HT-1080, EGFRvIII amplified U87MG cells and GBM CSCs.
The test system of another data set is IκBα phosphorylation. Kind of data set: IκBα phosphorylation after NOD2 stimulation with L-18 MDP. It counts as cell-based. Particulars: U87EGFRvIII cells, pretreatment 100nM, L-18 MDP stimulation.
The target of data set [8] is T1, recombinant human full-length RIPK2 (Homo sapiens, UniProt O43353). The data set can be described thus: in vitro competitive binding, UV-dependent labeling of RIPK2 by cRIPGBM-PAP.
T1 sequence (O43353 whole entry): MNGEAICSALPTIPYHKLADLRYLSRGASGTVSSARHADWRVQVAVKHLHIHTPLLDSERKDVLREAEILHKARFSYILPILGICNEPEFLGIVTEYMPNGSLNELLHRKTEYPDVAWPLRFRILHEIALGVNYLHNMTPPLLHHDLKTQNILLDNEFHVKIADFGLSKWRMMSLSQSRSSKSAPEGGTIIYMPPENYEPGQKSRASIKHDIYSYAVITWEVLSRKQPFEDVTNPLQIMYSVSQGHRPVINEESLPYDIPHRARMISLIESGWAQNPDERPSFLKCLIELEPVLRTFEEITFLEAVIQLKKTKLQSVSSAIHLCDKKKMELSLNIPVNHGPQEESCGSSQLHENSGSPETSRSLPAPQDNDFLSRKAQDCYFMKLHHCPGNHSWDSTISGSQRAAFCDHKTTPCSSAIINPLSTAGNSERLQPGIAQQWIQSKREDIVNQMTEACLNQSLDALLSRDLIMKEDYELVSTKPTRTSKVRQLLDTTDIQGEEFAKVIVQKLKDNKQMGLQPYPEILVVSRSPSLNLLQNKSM
Data set [9] is described as follows: brain tissue distribution pharmacokinetic study. Particulars: 10 mg/kg, P.O., CD-1 mice.
The nature of data set [10]: two-week mouse tolerability study. It counts as in vivo. Particulars: oral, 1.0 and 5.0 mg/kg B.I.D., two weeks, naïve animals.
Another data set addresses hERG channel (Homo sapiens, UniProt Q12809). Kind of data set: hERG channel inhibition assay. Format: biochemical. Particulars: at 3 μM, highest tested concentration.
In data set [11] the test system is U87EGFRvIII intracranial xenografts. The data set can be described thus: orthotopic intracranial GBM xenograft, tumor growth by FMT. Format: in vivo, athymic nude mice. Particulars: oral, 5mg/kg and 15 mg/kg, B.I.D.
A further data set relates to survivin mRNA. It counts as in vivo, athymic nude mice. Particulars: 1 hour after last dose of 9-day regimen.
Data set [12] relates to GBM CSCs and non-diseased cells. Kind of data set: MS-based metabolite identification of aYM155 activation in cells. Format: cell-based, human. Conditions: 100 nM, 24 hours.
Data set [13] has as its target T1, recombinant human full-length RIPK2. Particulars: read-out: apparent Kd for RIPK2; cited from earlier work.

Chain of hERG channel (Q12809 whole entry): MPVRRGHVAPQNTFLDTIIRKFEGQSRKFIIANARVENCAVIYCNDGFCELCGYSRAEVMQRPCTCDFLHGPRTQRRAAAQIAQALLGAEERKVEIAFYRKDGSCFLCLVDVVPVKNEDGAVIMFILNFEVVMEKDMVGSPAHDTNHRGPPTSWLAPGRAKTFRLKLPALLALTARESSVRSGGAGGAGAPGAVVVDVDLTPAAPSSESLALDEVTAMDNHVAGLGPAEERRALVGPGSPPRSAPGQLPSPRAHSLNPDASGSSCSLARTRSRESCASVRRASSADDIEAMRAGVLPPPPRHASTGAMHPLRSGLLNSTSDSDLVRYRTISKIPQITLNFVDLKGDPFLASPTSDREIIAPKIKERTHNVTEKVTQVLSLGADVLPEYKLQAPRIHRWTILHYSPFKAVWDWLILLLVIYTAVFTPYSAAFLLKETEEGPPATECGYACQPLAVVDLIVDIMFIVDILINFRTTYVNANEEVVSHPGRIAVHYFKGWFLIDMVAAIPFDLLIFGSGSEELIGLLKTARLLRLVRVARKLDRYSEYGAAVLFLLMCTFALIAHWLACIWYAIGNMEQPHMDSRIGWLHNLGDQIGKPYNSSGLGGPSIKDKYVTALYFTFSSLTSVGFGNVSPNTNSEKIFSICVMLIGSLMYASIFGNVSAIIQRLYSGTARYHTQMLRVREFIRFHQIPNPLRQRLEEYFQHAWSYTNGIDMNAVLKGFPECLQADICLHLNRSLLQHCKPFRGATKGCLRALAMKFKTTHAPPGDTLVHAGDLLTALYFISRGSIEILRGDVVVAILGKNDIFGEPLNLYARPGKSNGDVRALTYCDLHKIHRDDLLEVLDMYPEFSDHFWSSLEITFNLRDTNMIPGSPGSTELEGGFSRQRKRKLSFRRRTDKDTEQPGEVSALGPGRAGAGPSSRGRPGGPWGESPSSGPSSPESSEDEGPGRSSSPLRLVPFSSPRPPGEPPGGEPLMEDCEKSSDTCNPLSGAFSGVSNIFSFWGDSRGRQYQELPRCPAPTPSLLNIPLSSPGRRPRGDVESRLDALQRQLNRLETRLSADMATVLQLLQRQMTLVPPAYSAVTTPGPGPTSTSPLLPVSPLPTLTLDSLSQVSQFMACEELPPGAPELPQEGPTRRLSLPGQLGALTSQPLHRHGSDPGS

As to `CC(=O)N(Cc1ccc(F)cc1)C1=C(NCc2ccccc2)C(=O)c2ccccc2C1=O` [RIPGBM], the IC50 came to 200 nM in the data set with GBM-A (cell killing, 72 hours) and 400 nM in the data set on GBM-F (cell killing).
As for `COCCn1c2c([n+](Cc3cnccn3)c1C)C(=O)c1ccccc1C2=O` [YM155, sepantronium bromide], the IC50 in the data set with GBM-A (Homo sapiens, 72 h) came to 4.5 nM; in the data set with GBM-F (Homo sapiens, 72 h), 0.78 nM; in [1] (Homo sapiens, Astrocyte, 72 h), 5.1 nM; in data set [2] (Homo sapiens, 72 h), 5 nM; in data set [3] (Homo sapiens, Fibroblast) it was 92 nM; in data set [4] (Homo sapiens), 5 nM. Moreover, the IC50 in the data set with U118MG (Homo sapiens, U-118-MG) came out at 3.7 nM; in the data set with LN229 (Homo sapiens, LN-229, read-out: LN229 IC50) it was 2.8 nM; in data set [5] it was 3.1 nM; in the data set on U87-EGFRvIII cells (24 h), 20 nM. The “cell viability on loss of RIPK2” value in the data set on U87-EGFRvIII cells (24 hours) and in the data set on HT-1080 cells was “significant rescue of cell viability” in each case. In the data set on U87-EGFRvIII cells, the “sensitivity following shRNA-mediated RIPK1 knockdown” value is “No significant differences in sensitivity”. In addition, the “survivin expression on RIPK2 knockdown” value with Survivin [6] is recorded as “significant rescue of survivin expression”. For the same compound, in the data set on Survivin [7] (HT-1080 RIPK2 shRNA cells), the “concentration required to significantly impact survivin protein levels” value came to 100 nM. Moreover, in the data set on Survivin [7] (HT-1080 non-targeting shRNA control cells), the “concentration giving significant reduction of survivin protein levels” value is 10 nM. Also, the “Casp3/7 activation on SLC35F2 shRNA knockdown” value in the data set with Casp-3/7 is reported as “ablated”. Moreover, in the data set with Casp-3/7, the “Casp-3/7 activation in RIPK2 shRNA knockdown cells vs non-targeting control” value is listed as “significantly reduced”. The Casp-3/7 activation result in the data set on Casp-3/7 was “Casp-3/7 activation was observed”. Besides, the Casp-1 activation entry with Casp-1 is given as “time dependent activation of Casp-1”. Further, the “IKK activation (IκBα phosphorylation)” value in the data set with IκBα phosphorylation was “reduced IKK activation”. The “potency of inhibition of cRIPGBM-PAP RIPK2 labeling relative to cRIPGBM” value in data set [8] is given as ~ 10 fold. Besides, the “inhibition of UV-dependent covalent labeling of RIPK2 by cRIPGBM-PAP” value in data set [8] (cRIPGBM-PAP 1 μM, at concentrations as low as 30nM) is reported as “at least 50%”. In addition, the brain exposure result in [9] was “no brain exposure above limits of quantification”.
For the compound `COCCN(C(C)=O)C1=C(NCc2cnccn2)C(=O)c2ccccc2C1=O` [aYM155], the “fold less potent compared to YM155” value was found to be 2.2 fold in the data set on GBM-A (GBM-A), 12 fold in [1] (HA) and 19 fold in [2] (NPC). Also, the IC50 was 10 nM in the data set on GBM-A (cell killing, 72 hours); 0.65 nM in the data set with GBM-F (cell killing, 72 hours); 62 nM in data set [1] (control cell type, 72 hours); 97 nM in data set [2] (control cell type, 72 hours); 2000 nM in data set [3] (control cell type); 62 to 97 nM in data set [4] (HA and NPC). Moreover, the IC50 in the data set on U118MG (hypo-MGMT methylated) was found to be 11 nM; in the data set with LN229 (read-out: LN229 IC50, hyper-MGMT methylated), 12 nM; in the data set with U87-EGFRvIII cells (U87-EGFRvIII cells, 24 hours), 160 nM. Also, the “potency compared to YM155” value in the data set with GBM-F (GBM-F) is given as “~ equivalent”. Moreover, the “cell viability on loss of RIPK2” value with U87-EGFRvIII cells (24 hours) and in the data set with HT-1080 cells was “significant rescue of cell viability” in each case. Moreover, the “sensitivity following shRNA-mediated RIPK1 knockdown” value with U87-EGFRvIII cells was “No significant differences in sensitivity”. The “Casp3/7 activation on SLC35F2 shRNA knockdown” value with Casp-3/7 is “ablated”. Moreover, the “Casp-3/7 activation in RIPK2 shRNA knockdown cells vs non-targeting control” value in the data set with Casp-3/7 is recorded as “significantly reduced”. The Casp-3/7 activation result in the data set with Casp-3/7 is “Casp-3/7 activation was observed”. Besides, in data set [10], the “tolerability (weight loss and behavioral observations)” value is on record as “well tolerated”. At hERG channel, the hERG channel inhibition was less than 20%. Moreover, in data set [11], the “tumor growth by FMT imaging” value is listed as “significant inhibition of tumor growth”. In the data set on survivin mRNA (5 and 15 mg/kg B.I.D.), the “survivin expression levels in human tumor tissue” value is “significantly decrease survivin expression levels”. Besides, the “survivin expression in normal brain tissue” value in the data set on survivin mRNA is reported as “no effect”. In addition, in data set [12], the “rates of conversion to YM155 in GBM CSC populations compared to non-transformed control cell types” value was “significantly higher”. The “brain Cmax” value in data set [9] is 32 nM. The brain/plasma concentration ratio in data set [9] is listed as 0.56.
Turning to `Cc1n(Cc2ccc(N=[N+]=[N-])cc2)c2c([n+]1CCOCCOCCNC(=O)CCCC[C@@H]1SC[C@@H]3NC(=O)N[C@@H]31)C(=O)c1ccccc1C2=O` [cRIPGBM-PAP], the Kd in [13] is 2300 nM.
As for `Cc1n(Cc2ccc(F)cc2)c2c([n+]1Cc1ccccc1)C(=O)c1ccccc1C2=O` [cRIPGBM], the IC50 in the data set on GBM-A (cell killing, 72 hours) was 27 nM; in the data set on GBM-F (cell killing) it was 70 nM.
